Measurements from the NIST ThermoML archive (doi:10.1016/j.tca.2015.06.017).
Numbers after ± are expanded uncertainties.

Experiment: xn = mol fraction of the nth substance listed
Conditions: Liquid, Vibrating tube method

CC(C)(C)Cl [2-chloro-2-methylpropane] + CCCCCCC
mass density [kg/m3]
Conditions	313.15 K	323.15 K
100 kPa, x2 = 0.0554	–	794.33 ± 0.24
100 kPa, x2 = 0.1017	–	785.21 ± 0.24
100 kPa, x2 = 0.2004	–	766.79 ± 0.24
100 kPa, x2 = 0.3016	–	749.26 ± 0.24
100 kPa, x2 = 0.4097	–	731.93 ± 0.25
100 kPa, x2 = 0.498	–	718.79 ± 0.25
100 kPa, x2 = 0.5983	–	704.9 ± 0.25
100 kPa, x2 = 0.7017	–	691.67 ± 0.25
100 kPa, x2 = 0.7995	–	680.04 ± 0.25
100 kPa, x2 = 0.9032	–	668.52 ± 0.25
100 kPa, x2 = 0.9482	–	663.72 ± 0.25
2000 kPa, x2 = 0.0554	–	797.48 ± 0.26
2000 kPa, x2 = 0.1017	–	788.27 ± 0.26
2000 kPa, x2 = 0.2004	–	769.77 ± 0.26
2000 kPa, x2 = 0.3016	–	752.1 ± 0.26
2000 kPa, x2 = 0.4097	–	734.59 ± 0.26
2000 kPa, x2 = 0.498	–	721.4 ± 0.27
2000 kPa, x2 = 0.5983	–	707.53 ± 0.27
2000 kPa, x2 = 0.7017	–	694.11 ± 0.27
2000 kPa, x2 = 0.7995	–	682.44 ± 0.27
2000 kPa, x2 = 0.9032	–	670.78 ± 0.27
2000 kPa, x2 = 0.9482	–	665.93 ± 0.28
5000 kPa, x2 = 0.0554	–	802.32 ± 0.28
5000 kPa, x2 = 0.1017	–	793.03 ± 0.28
5000 kPa, x2 = 0.2004	–	774.28 ± 0.28
5000 kPa, x2 = 0.3016	–	756.52 ± 0.29
5000 kPa, x2 = 0.4097	–	738.91 ± 0.29
5000 kPa, x2 = 0.498	–	725.49 ± 0.3
5000 kPa, x2 = 0.5983	–	711.44 ± 0.3
5000 kPa, x2 = 0.7017	–	697.95 ± 0.3
5000 kPa, x2 = 0.7995	–	686.17 ± 0.31
5000 kPa, x2 = 0.9032	–	674.4 ± 0.31
5000 kPa, x2 = 0.9482	–	669.52 ± 0.31
7000 kPa, x2 = 0.0554	–	805.4 ± 0.29
7000 kPa, x2 = 0.1017	–	796.06 ± 0.29
7000 kPa, x2 = 0.2004	–	777.25 ± 0.3
7000 kPa, x2 = 0.3016	–	759.21 ± 0.31
7000 kPa, x2 = 0.4097	–	741.54 ± 0.31
7000 kPa, x2 = 0.498	–	728.22 ± 0.32
7000 kPa, x2 = 0.5983	–	714.07 ± 0.32
7000 kPa, x2 = 0.7017	–	700.51 ± 0.33
7000 kPa, x2 = 0.7995	–	688.53 ± 0.33
7000 kPa, x2 = 0.9032	–	676.71 ± 0.34
7000 kPa, x2 = 0.9482	–	671.83 ± 0.34
10000 kPa, x2 = 0.0554	–	809.88 ± 0.31
10000 kPa, x2 = 0.1017	–	800.36 ± 0.32
10000 kPa, x2 = 0.2004	–	781.49 ± 0.32
10000 kPa, x2 = 0.3016	–	763.36 ± 0.33
10000 kPa, x2 = 0.4097	–	745.37 ± 0.34
10000 kPa, x2 = 0.498	–	731.85 ± 0.35
10000 kPa, x2 = 0.5983	–	717.55 ± 0.35
10000 kPa, x2 = 0.7017	–	703.96 ± 0.36
10000 kPa, x2 = 0.7995	–	691.76 ± 0.37
10000 kPa, x2 = 0.9032	–	679.93 ± 0.37
10000 kPa, x2 = 0.9482	–	674.96 ± 0.37
20000 kPa, x2 = 0.0554	–	823.12 ± 0.37
20000 kPa, x2 = 0.1017	–	813.35 ± 0.38
20000 kPa, x2 = 0.2004	–	794.06 ± 0.4
20000 kPa, x2 = 0.3016	–	775.49 ± 0.41
20000 kPa, x2 = 0.4097	–	757.06 ± 0.43
20000 kPa, x2 = 0.498	751.92 ± 0.43	743.41 ± 0.44
20000 kPa, x2 = 0.5983	737.01 ± 0.45	728.54 ± 0.45
20000 kPa, x2 = 0.7017	722.7 ± 0.46	714.57 ± 0.46
20000 kPa, x2 = 0.7995	709.98 ± 0.47	702.11 ± 0.48
20000 kPa, x2 = 0.9032	697.53 ± 0.48	689.93 ± 0.49
20000 kPa, x2 = 0.9482	692.28 ± 0.48	684.86 ± 0.49
30000 kPa, x2 = 0.0554	844.1 ± 0.42	834.6 ± 0.43
30000 kPa, x2 = 0.1017	834.2 ± 0.43	824.82 ± 0.44
30000 kPa, x2 = 0.2004	814.01 ± 0.45	805.07 ± 0.46
30000 kPa, x2 = 0.3016	794.87 ± 0.48	786.11 ± 0.49
30000 kPa, x2 = 0.4097	775.79 ± 0.5	767.3 ± 0.51
30000 kPa, x2 = 0.498	761.41 ± 0.52	753.1 ± 0.53
30000 kPa, x2 = 0.5983	746.13 ± 0.54	738.15 ± 0.55
30000 kPa, x2 = 0.7017	731.52 ± 0.55	723.78 ± 0.56
30000 kPa, x2 = 0.7995	718.59 ± 0.57	711.07 ± 0.58
30000 kPa, x2 = 0.9032	705.89 ± 0.59	698.64 ± 0.6
30000 kPa, x2 = 0.9482	700.51 ± 0.59	693.47 ± 0.6
40000 kPa, x2 = 0.0554	854.03 ± 0.46	844.99 ± 0.47
40000 kPa, x2 = 0.1017	843.96 ± 0.48	835.05 ± 0.49
40000 kPa, x2 = 0.2004	823.46 ± 0.51	814.92 ± 0.52
40000 kPa, x2 = 0.3016	804.15 ± 0.54	795.67 ± 0.55
40000 kPa, x2 = 0.4097	784.83 ± 0.57	776.64 ± 0.58
40000 kPa, x2 = 0.498	770.02 ± 0.59	762.18 ± 0.61
40000 kPa, x2 = 0.5983	754.48 ± 0.62	746.92 ± 0.63
40000 kPa, x2 = 0.7017	739.67 ± 0.64	732.28 ± 0.66
40000 kPa, x2 = 0.7995	726.54 ± 0.67	719.25 ± 0.68
40000 kPa, x2 = 0.9032	713.51 ± 0.69	706.58 ± 0.7
40000 kPa, x2 = 0.9482	708.05 ± 0.7	701.31 ± 0.71
50000 kPa, x2 = 0.0554	862.97 ± 0.5	854.39 ± 0.52
50000 kPa, x2 = 0.1017	852.84 ± 0.52	844.39 ± 0.54
50000 kPa, x2 = 0.2004	832.15 ± 0.56	823.81 ± 0.58
50000 kPa, x2 = 0.3016	812.43 ± 0.6	804.37 ± 0.61
50000 kPa, x2 = 0.4097	792.76 ± 0.64	785.03 ± 0.65
50000 kPa, x2 = 0.498	777.91 ± 0.67	770.31 ± 0.68
50000 kPa, x2 = 0.5983	762.19 ± 0.7	754.82 ± 0.71
50000 kPa, x2 = 0.7017	747.09 ± 0.73	739.94 ± 0.74
50000 kPa, x2 = 0.7995	733.8 ± 0.76	726.85 ± 0.77
50000 kPa, x2 = 0.9032	720.62 ± 0.78	713.88 ± 0.8
50000 kPa, x2 = 0.9482	715.12 ± 0.79	708.52 ± 0.81
60000 kPa, x2 = 0.0554	871.31 ± 0.53	863.07 ± 0.55
60000 kPa, x2 = 0.1017	861.07 ± 0.56	852.83 ± 0.58
60000 kPa, x2 = 0.2004	840.18 ± 0.61	832.16 ± 0.62
60000 kPa, x2 = 0.3016	820.2 ± 0.65	812.47 ± 0.67
60000 kPa, x2 = 0.4097	800.35 ± 0.7	792.82 ± 0.72
60000 kPa, x2 = 0.498	785.26 ± 0.74	778.02 ± 0.75
60000 kPa, x2 = 0.5983	769.28 ± 0.77	762.27 ± 0.79
60000 kPa, x2 = 0.7017	753.92 ± 0.81	747.09 ± 0.83
60000 kPa, x2 = 0.7995	740.45 ± 0.84	733.8 ± 0.86
60000 kPa, x2 = 0.9032	727.14 ± 0.88	720.67 ± 0.89
60000 kPa, x2 = 0.9482	721.6 ± 0.89	715.25 ± 0.9
65000 kPa, x2 = 0.0554	875.25 ± 0.55	867.24 ± 0.57
65000 kPa, x2 = 0.1017	864.95 ± 0.57	856.84 ± 0.59
65000 kPa, x2 = 0.2004	843.84 ± 0.63	836.1 ± 0.65
65000 kPa, x2 = 0.3016	823.81 ± 0.68	816.3 ± 0.7
65000 kPa, x2 = 0.4097	803.85 ± 0.73	796.58 ± 0.75
65000 kPa, x2 = 0.498	788.68 ± 0.77	781.6 ± 0.79
65000 kPa, x2 = 0.5983	772.62 ± 0.81	765.81 ± 0.83
65000 kPa, x2 = 0.7017	757.22 ± 0.85	750.52 ± 0.87
65000 kPa, x2 = 0.7995	743.57 ± 0.89	737.12 ± 0.9
65000 kPa, x2 = 0.9032	730.17 ± 0.92	723.9 ± 0.94
65000 kPa, x2 = 0.9482	724.57 ± 0.94	718.48 ± 0.95
